The source of these data is patent US20070027143A1, “Novel substituted 2,3-benzodiazepine derivatives” (priority 2003, published 2007).

Molecules are shown by their SMILES.

`CC(=O)Nc1ccc(C2=NN(c3nc(C)cs3)C(C)Cc3cc4c(cc32)OCO4)cc1` (racemic) (hydrate or solvate) [Example 121, (±)-5-(4-Acetylaminophenyl)-8-methyl-7-(4-methyl-thiazol-2-yl)-8,9-dihydro-7H-1,3-dioxolo-[4,5-h][2,3]benzodiazepine] yielded a melting point of 236 to 238 °C.
In turn, `Cc1nnc(N2N=C(c3cc(C)c(N)c(C)c3)c3cc4c(cc3C[C@H]2C)OCO4)o1` [Example 191, (R)-5-(4-Amino-3,5-dimethylphenyl)-8-methyl-7-(5-methyl-1,3,4-oxadiazol-2-yl)-8,9-dihydro-7H-1,3-dioxolo[4,5-h][2,3]benzodiazepine] displayed a melting point of 148 to 150 °C.
The result for `Cc1cc(C2=NN(c3nccs3)[C@H](C)Cc3cc4c(cc32)OCO4)ccc1N` [Example 164, (R)-5-(4-Amino-3-methylphenyl)-8-methyl-7-(thiazol-2-yl)-8,9-dihydro-7H-1,3-dioxolo-[4,5-h][2,3]benzodiazepine] reads 124 to 127 °C; that for `COCc1nnc(N2N=C(c3ccc(N)c(Cl)c3)c3cc4c(cc3C[C@H]2C)OCO4)s1` [Example 183, (R)-5-(4-Amino-3-chlorophenyl)-8-methyl-7-(5-methoxymethyl-1,3,4-thiadiazol-2-yl)-8,9-dihydro-7H-1,3-dioxolo[4,5-h][2,3]benzodiazepine], 105 to 109 °C.
The result for `CC1Cc2ccc(Cl)cc2C(c2ccc(N)cc2)=NN1C1=NC(=O)CS1` (racemic) [Example 80, (±)-1-(4-Aminophenyl)-3-(4,5-dihydro-4-oxo-thiazol-2-yl)-8-chloro-4-methyl-4,5-dihydro-3H-[2,3]benzodiazepine] reads 226 to 228 °C.
In the case of `Cc1nc(N2N=C(c3ccc(N)cc3)c3cc4c(cc3CC2C)OCO4)no1` (racemic) [Example 109, (±)-5-(4-Aminophenyl)-8-methyl-7-(5-methyl-1,2,4-oxadiazol-3-yl)-8,9-dihydro-7H-1,3-dioxolo-[4,5-h][2,3]benzodiazepine], the melting point is 130 to 135 °C.
`CCOC(=O)c1csc(N2N=C(c3ccc(N)cc3)c3cc4c(cc3CC2C)OCO4)n1` (racemic) [Example 67, (±)-5-(4-Aminophenyl)-7-(4-ethoxycarbonyl-thiazol-2-yl)-8-methyl-8,9-dihydro-7H-1,3-dioxolo-[4,5-h][2,3]benzodiazepine] had a melting point of 251 to 252 °C.
For the compound `CC1SC(N2N=C(c3ccc(N)cc3)c3cc4c(cc3CC2C)OCO4)=NC1=O` (racemic) [Example 72, (±)-5-(4-Aminophenyl)-7-(4,5-dihydro-5-methyl-4-oxo-thiazol-2-yl)-8-methyl-8,9-dihydro-7H-1,3-dioxolo-[4,5-h][2,3]benzodiazepine], the melting point is 200 to 204 °C.
In turn, `Cc1nc(N2N=C(c3ccc(N)cc3)c3cc4c(cc3CC2C)OCO4)sc1C` (racemic) [Example 65, (±)-5-(4-Aminophenyl)-8-methyl-7-(4,5-dimethyl-thiazol-2-yl)-8,9-dihydro-7H-1,3-dioxolo-[4,5-h][2,3]benzodiazepine] had a melting point of 240 to 242 °C.
Then `CC1Cc2cc3c(cc2C(c2ccc(N)cc2)=NN1c1nnc(C(F)(F)F)s1)OCO3` (racemic) [Example 90, (±)-5-(4-Aminophenyl)-8-methyl-7-(5-trifluoromethyl-1,3,4-thiadiazol-2-yl)-8,9-dihydro-7H-1,3-dioxolo-[4,5-h][2,3]benzodiazepine], with 216 to 218 °C; and `C[C@@H]1Cc2cc3c(cc2C(c2ccc(N)cc2)=NN1c1nnco1)OCO3` [Example 180, (R)-5-(4-Aminophenyl)-8-methyl-7-(1,3,4-oxadiazol-2-yl)-8,9-dihydro-7H-1,3-dioxolo[4,5-h][2,3]benzodiazepine], with 187 to 190 °C.
On to `Cc1csc(N2N=C(c3ccc(N)cc3)c3cc(Cl)ccc3CC2C)n1` (racemic) [Example 78, (±)-1-(4-Aminophenyl)-8-chloro-4-methyl-3-(4-methyl-thiazol-2-yl)-4,5-dihydro-3H-[2,3]benzodiazepine], for which the melting point was in the range of 173 to 175 °C.
`CC(=O)Nc1ccc(C2=NN(c3nnc(C)s3)C(C)Cc3cc4c(cc32)OCO4)cc1C` (racemic) [Example 131, (±)-5-(4-Acetylamino-3-methylphenyl)-8-methyl-7-(5-methyl-1,3,4-thiadiazol-2-yl)-8,9-dihydro-7H-1,3-dioxolo[4,5-h][2,3]benzodiazepine]: the melting point was 258 to 262 °C.
Compound `C/C=C/c1nnc(N2N=C(c3ccc([N+](=O)[O-])c(C)c3)c3cc4c(cc3C[C@H]2C)OCO4)s1` [Example 146, (R)-8-Methyl-5-(3-methyl-4-nitrophenyl)-7-{5-[1-(1E)-propen-1-yl]-1,3,4-thiadiazol-2-yl}-8,9-dihydro-7H-1,3-dioxolo[4,5-h][2,3]benzodiazepine] registered a melting point of 232 to 237 °C.
Then `CCOC(=O)c1nnc(N2N=C(c3ccc(N)c(C)c3)c3cc4c(cc3C[C@H]2C)OCO4)s1` [Example 175, (R)-5-(4-Amino-3-methylphenyl)-7-(5-ethoxycarbonyl-1,3,4-thiadiazol-2-yl)-8-methyl-8,9-dihydro-7H-1,3-dioxolo[4,5-h][2,3]benzodiazepine], with 135 to 140 °C.
`CSCc1nnc(N2N=C(c3ccc(N)c(C)c3)c3cc4c(cc3C[C@H]2C)OCO4)s1` [Example 174, (R)-5-(4-Amino-3-methylphenyl)-8-methyl-7-(5-methylthiomethyl-1,3,4-thiadiazol-2-yl)-8,9-dihydro-7H-1,3-dioxolo[4,5-h][2,3]benzodiazepine] gave a melting point of 177 to 180 °C.
The result for `CC1Cc2cc3c(cc2C(c2ccc(N)cc2)=NN1c1ncn(C)n1)OCO3` (racemic) [Example 116, (±)-5-(4-Aminophenyl)-8-methyl-7-(1-methyl-1H-1,2,4-triazol-3-yl)-8,9-dihydro-7H-1,3-dioxolo-[4,5-h][2,3]benzodiazepine] reads 165 to 168 °C; that for `CC1=NN=C(N2N=C(c3ccc(N)cc3)c3cc4c(cc3CC2C)OCO4)SC1` (racemic) [Example 99, (±)-5-(4-Aminophenyl)-8-methyl-7-(5-methyl-6H-1,3,4-thiadiazin-2-yl)-8,9-dihydro-7H-1,3-dioxolo-[4,5-h][2,3]benzodiazepine], 154 to 157 °C.
`CC(=O)Nc1ccc(C2=NN(c3nnc(C)s3)[C@H](C)Cc3cc4c(cc32)OCO4)cc1` [Example 130, (R)-5-(4-Acetylaminophenyl)-8-methyl-7-(5-methyl-1,3,4-thiadiazol-2-yl)-8,9-dihydro-7H-1,3-dioxolo-[4,5-h][2,3]benzodiazepine] gave a melting point of 276 to 277 °C.
Compound `CC(=O)Nc1ccc(C2=NN(C3=NCCO3)C(C)Cc3cc4c(cc32)OCO4)cc1` (racemic) [Example 127, (±)-5-(4-Acetylaminophenyl)-7-(4,5-dihydro-oxazol-2-yl)-8-methyl-8,9-dihydro-7H-1,3-dioxolo-[4,5-h][2,3]benzodiazepine] came in with a melting point of 124 to 128 °C.
`CC1=Cc2cc3c(cc2C(c2ccc(N)cc2)=NN1c1ncon1)OCO3.Cl` displayed a melting point of 124 to 126 °C.
